From article PMC11851430, “Workflow for E3 Ligase Ligand Validation for PROTAC Development” (ACS Chemical Biology, 2025)

Legend:
[1] = molecular target: T1, AAK1A (Homo sapiens, UniProt Q2M2I8); assay: DSF assay; format: binding; settings: 20 µM compound
T1 construct: purchased in-house DSF panel (SGC-style construct names; the trailing A/B is a construct suffix)

[2] = molecular target: T2, MAP3K5A (Homo sapiens, UniProt Q99683); assay: DSF assay; format: binding; settings: 20 µM compound
T2 construct: purchased in-house DSF panel (SGC-style construct names; the trailing A/B is a construct suffix)
T2 sequence (Q99683 659-951): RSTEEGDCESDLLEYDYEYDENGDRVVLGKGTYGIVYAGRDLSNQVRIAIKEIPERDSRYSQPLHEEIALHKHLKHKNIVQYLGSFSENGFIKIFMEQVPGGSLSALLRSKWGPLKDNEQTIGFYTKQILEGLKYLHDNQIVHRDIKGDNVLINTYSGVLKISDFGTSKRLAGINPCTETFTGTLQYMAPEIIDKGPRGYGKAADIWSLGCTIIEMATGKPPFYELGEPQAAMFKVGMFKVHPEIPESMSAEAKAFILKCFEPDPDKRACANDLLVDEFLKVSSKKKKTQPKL

[3] = molecular target: T3, CAMK4A (Homo sapiens, UniProt Q16566); assay: DSF assay; format: binding; settings: 20 µM compound
T3 construct: purchased in-house DSF panel (SGC-style construct names; the trailing A/B is a construct suffix)
T3 sequence (Q16566 1-473): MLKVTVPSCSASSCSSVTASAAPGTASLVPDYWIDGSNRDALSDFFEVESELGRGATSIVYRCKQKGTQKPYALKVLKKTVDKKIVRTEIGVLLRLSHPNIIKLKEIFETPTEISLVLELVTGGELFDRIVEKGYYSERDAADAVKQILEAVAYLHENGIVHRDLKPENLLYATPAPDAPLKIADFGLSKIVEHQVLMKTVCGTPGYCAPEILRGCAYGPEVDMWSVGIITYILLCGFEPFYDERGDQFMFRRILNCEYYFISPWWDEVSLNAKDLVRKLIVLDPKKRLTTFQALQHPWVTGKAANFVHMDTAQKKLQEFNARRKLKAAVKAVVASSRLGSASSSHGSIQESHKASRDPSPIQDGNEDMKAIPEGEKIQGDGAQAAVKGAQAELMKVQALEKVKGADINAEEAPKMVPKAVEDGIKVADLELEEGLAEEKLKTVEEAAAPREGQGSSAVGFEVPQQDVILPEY

[4] = molecular target: T4, CAMK1GA (Homo sapiens, UniProt Q96NX5); assay: DSF assay; format: binding; settings: 20 µM compound
T4 construct: purchased in-house DSF panel (SGC-style construct names; the trailing A/B is a construct suffix)
T4 sequence (Q96NX5 23-277): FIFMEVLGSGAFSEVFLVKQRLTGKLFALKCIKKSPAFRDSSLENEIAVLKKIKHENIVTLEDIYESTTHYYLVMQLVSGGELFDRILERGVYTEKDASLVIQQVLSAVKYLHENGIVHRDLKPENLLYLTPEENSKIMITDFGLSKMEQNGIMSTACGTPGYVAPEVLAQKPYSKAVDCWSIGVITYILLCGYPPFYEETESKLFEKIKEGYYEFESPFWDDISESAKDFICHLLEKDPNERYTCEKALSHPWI

[5] = molecular target: T5, MERTKA (Homo sapiens, UniProt Q12866); assay: DSF assay; format: binding; settings: 20 µM compound
T5 construct: purchased in-house DSF panel (SGC-style construct names; the trailing A/B is a construct suffix)
T5 sequence (Q12866 574-864): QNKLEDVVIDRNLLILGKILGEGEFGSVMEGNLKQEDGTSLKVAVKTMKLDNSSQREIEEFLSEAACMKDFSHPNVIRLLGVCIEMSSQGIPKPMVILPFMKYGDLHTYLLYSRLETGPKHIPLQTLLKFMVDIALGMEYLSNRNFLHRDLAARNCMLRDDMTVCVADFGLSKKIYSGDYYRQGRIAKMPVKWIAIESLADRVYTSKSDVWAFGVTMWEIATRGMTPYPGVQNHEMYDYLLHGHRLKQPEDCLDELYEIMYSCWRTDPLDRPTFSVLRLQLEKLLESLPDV

[6] = molecular target: T6, CASKA (Homo sapiens, UniProt O14936); assay: DSF assay; format: binding; settings: 20 µM compound
T6 construct: purchased in-house DSF panel (SGC-style construct names; the trailing A/B is a construct suffix)
T6 sequence (O14936 1-337): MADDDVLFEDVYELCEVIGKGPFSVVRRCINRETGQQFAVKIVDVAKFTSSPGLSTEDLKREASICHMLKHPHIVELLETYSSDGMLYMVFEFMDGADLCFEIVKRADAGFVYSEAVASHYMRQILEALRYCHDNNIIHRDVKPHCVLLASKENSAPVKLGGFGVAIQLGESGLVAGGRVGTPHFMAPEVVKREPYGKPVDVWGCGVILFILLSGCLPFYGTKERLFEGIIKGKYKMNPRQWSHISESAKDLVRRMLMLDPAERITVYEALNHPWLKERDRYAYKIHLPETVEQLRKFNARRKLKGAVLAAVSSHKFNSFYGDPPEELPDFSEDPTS

[7] = molecular target: T7, AURKA (Homo sapiens, UniProt O14965); assay: Western blot assay; format: cell-based; design: endogenous in cells; host or cells: Jurkat; settings: Jurkat cells, 6 h
T7 sequence (O14965 1-403): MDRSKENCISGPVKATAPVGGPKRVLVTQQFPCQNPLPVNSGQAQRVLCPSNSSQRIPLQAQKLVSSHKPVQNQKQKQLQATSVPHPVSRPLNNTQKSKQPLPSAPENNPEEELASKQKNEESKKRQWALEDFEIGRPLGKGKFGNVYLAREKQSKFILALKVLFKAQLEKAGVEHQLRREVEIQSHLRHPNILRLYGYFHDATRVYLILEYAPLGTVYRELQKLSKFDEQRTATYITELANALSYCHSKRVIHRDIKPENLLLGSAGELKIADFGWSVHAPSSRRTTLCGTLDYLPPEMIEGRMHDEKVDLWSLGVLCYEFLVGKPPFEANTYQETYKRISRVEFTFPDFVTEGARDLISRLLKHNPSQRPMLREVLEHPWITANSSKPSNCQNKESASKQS
Method: Two mL of Jurkat cells were seeded into 6 well plates (Greiner) at a density of 5·10 5 cells/mL.
The following day, cells were treated with compounds at according concentrations or DMSO for 6 hours and then lysed with 6 M Urea at 4 °C for 20 minutes. The lysates were centrifuged for 15 minutes at 16000 g and the supernatant was collected to perform the Western-Blot.
Protein quantification was performed using nanodrop One. The SDS samples were prepared […]
The samples were separated by a BIS-TRIS polyacrylamide gel polyacrylamide gel, 100 V for 1:45) followed by transfer to PVDF membranes (Millipore) at 350 mA for 140 minutes. The membranes were blocked using 5%wt/vol BSA (in TBS-T, 20 mM Tris-HCl, pH 7.5, 150 mM NaCl and 0.1% (vol/vol) Tween 20) at room temperature for 1 hour.
The blots were incubated with respective primary antibodies at 1:1000 dilution (Cell Signaling technologies: Aurora A (D3E4Q), ITK (2F12) and GAPDH (D4C6R)) at 4 °C overnight. The blots were washed with TBS-T thrice and incubated with 1:5000 dilution of horseradish peroxidase (HRP)-labelled respective secondary antibodies (Cell Signaling technologies, Anti- […]
The blots were washed with TBS-T thrice and then incubated with chemiluminescent HRP substrate (Bio-Rad) for 2 minutes. The blots were imaged and the signals were detected using the Amersham ImageQuant 800 (Cytiva).
Cell culture. Human MV4-11 ([…]) and human Jurkat ([…]) cells were cultured in RPMI- […]
°C in 5% CO2. Both media were supplemented with 10% FBS and 1% penicillin/streptomycin. […]

T1 sequence (Q2M2I8 27-365): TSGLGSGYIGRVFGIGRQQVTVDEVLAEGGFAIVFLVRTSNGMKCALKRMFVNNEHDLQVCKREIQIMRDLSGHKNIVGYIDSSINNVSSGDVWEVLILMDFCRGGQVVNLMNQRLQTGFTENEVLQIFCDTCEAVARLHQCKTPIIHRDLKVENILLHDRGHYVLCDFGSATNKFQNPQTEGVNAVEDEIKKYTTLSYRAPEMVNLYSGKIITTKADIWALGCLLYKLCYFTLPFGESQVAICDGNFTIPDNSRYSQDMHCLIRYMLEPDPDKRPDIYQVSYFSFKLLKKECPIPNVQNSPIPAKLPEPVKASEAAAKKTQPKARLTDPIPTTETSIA

SMILES | ΔTm at 20 µM [1] | ΔTm at 20 µM [2] | ΔTm at 20 µM [3] | ΔTm at 20 µM [4] | ΔTm at 20 µM [5] | ΔTm at 20 µM [6] | AURKA protein levels (Western blot) [7]
CC(C)(C)OC(=O)NCCOCCOCCOCCOCCC(=O)N1CCN(c2cc(Nc3cc(C4CC4)[nH]n3)nc(Nc3ccc(CC#N)cc3)n2)CC1 [4-L] | 13.2 °C | 8.63 °C | 2.43 °C | 0.98 °C | 4.52 °C | -0.0121 °C | 
Cc1ncsc1-c1ccc(CNC(=O)[C@@H]2C[C@@H](O)CN2C(=O)[C@@H](NC(=O)CCOCCOCCOCCN2CCN(c3cc(Nc4cc(C5CC5)[nH]n4)nc(Nc4ccc(CC#N)cc4)n3)CC2)C(C)(C)C)cc1 [4-a] |  |  |  |  |  |  | only a weak reduction in AURKA levels
Cc1ncsc1-c1ccc(CNC(=O)[C@@H]2C[C@H](O)CN2C(=O)[C@@H](NC(=O)CCOCCOCCOCCN2CCN(c3cc(Nc4cc(C5CC5)[nH]n4)nc(Nc4ccc(CC#N)cc4)n3)CC2)C(C)(C)C)cc1 [4-a^neg] |  |  |  |  |  |  | no effect on AURKA levels

Results, then the compound that gave them:

ΔTm at 20 µM [1] | ΔTm at 20 µM [2] | ΔTm at 20 µM [3] | ΔTm at 20 µM [4] | ΔTm at 20 µM [5] | ΔTm at 20 µM [6] | AURKA protein levels (Western blot) [7] | SMILES
12.1 °C | 8.95 °C | 5.11 °C | 3.37 °C | 2.15 °C | 1.29 °C |  | CC(C)(C)OC(=O)NCCCOCCOCCOCCCNC(=O)c1cc(Nc2cc(C3CC3)[nH]n2)nc(Nc2ccc(CC#N)cc2)n1 [5-L]
 |  |  |  |  |  | only a weak reduction in AURKA levels | Cc1ncsc1-c1ccc(CNC(=O)[C@@H]2C[C@@H](O)CN2C(=O)[C@@H](NC(=O)CCOCCOCCOCCOCCN2CCN(c3ccc(Nc4ncc(Cl)c(Nc5ccccc5C(N)=O)n4)cc3)CC2)C(C)(C)C)cc1 [6-b]
 |  |  |  |  |  | no effect on AURKA levels | Cc1ncsc1-c1ccc(CNC(=O)[C@@H]2C[C@H](O)CN2C(=O)[C@@H](NC(=O)CCOCCOCCOCCOCCN2CCN(c3ccc(Nc4ncc(Cl)c(Nc5ccccc5C(N)=O)n4)cc3)CC2)C(C)(C)C)cc1 [6-b^neg]
10.1 °C | 6.97 °C | 3.64 °C | 1.53 °C | 2.06 °C | 1.91 °C |  | CCOC(=O)c1cc(Nc2cc(C3CC3)[nH]n2)nc(Nc2ccc(CC#N)cc2)n1 [compound 5]
